Consider 3 molecules from patent US5061691A, “Enkephalin analogs” (Kabushiki Kaisha Vitamin Kenkyuso, priority 1987, dated 1991).

Broadly, the IC50 is the midpoint of a concentration-inhibition curve.

Like-named read-outs stand apart in the source and are kept apart here. Peptide text beside a SMILES is read from it.

Assay [1] addresses T1, mouse vas deferens (MVD) (Mus musculus, UniProt P32300). Format: cell-based.
The next assay concerns the target guinea pig ileum (GPI) (Cavia porcellus, UniProt P97266). To be noted: value from Shimohigashi et al., Peptide Chemistry 1985 p. 51 (1986); cited from earlier work.
Assay [2] has as its target T1, mouse vas deferens (MVD). To be noted: cited from earlier work.
The test system of another assay is μ and δ opiate receptors. The following applies: Lutz et al., Eur. J. Pharmacol. 111, 257 (1985); cited from earlier work.
The conditions of assay [3]: i.c.v. or i.v. administration; cited from earlier work.

T1 sequence (P32300 whole entry): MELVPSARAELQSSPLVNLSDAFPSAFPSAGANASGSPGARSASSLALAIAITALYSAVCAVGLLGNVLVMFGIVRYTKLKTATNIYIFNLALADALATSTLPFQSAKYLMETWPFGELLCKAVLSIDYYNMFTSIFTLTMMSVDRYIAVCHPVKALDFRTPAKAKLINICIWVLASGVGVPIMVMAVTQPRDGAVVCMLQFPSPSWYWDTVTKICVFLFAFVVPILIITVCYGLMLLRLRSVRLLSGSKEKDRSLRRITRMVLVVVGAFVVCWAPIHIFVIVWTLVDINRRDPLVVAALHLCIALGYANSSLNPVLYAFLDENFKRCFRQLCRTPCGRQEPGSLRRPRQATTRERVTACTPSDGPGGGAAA
Sequence of guinea pig ileum (GPI) (P97266 whole entry): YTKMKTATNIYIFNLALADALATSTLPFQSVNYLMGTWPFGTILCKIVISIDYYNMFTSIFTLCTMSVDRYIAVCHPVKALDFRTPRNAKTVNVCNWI

Consider `NC(=O)[C@@H]1CCCN1C(=O)[C@H](Cc1ccccc1)NC(=O)[C@@H]1CCCN1C(=O)[C@@H](N)Cc1ccc(O)cc1` [Morphiceptin, H--Tyr--Pro--Phe--Pro--NH2] (H-YPFP-NH2), for which the “Activity ratio MVD/GPI” value at mouse vas deferens (MVD) [1] was found to be 5.7.
Take “(H--Tyr--D--Ala--Gly--NH--CH2 --)2 [DTRE2]”: the IC50 on guinea pig ileum (GPI) was 440 nM; on mouse vas deferens (MVD) [2] (value from Shimohigashi et al., Peptide Chemistry 1985 p. 51 (1986)), 2700 nM. The “opiate activity and selectivity in bioassays (GPI and MVD assays)” value at mouse vas deferens (MVD) [2] (GPI and MVD bioassays, Shimohigashi et al. (1986)) was “morphine-like activities and greater selectivity for μ than for δ”. The “Activity ratio MVD/GPI” value at mouse vas deferens (MVD) [2] (ratio of IC50, from Shimohigashi et al., Peptide Chemistry 1985 p. 51 (1986)) is recorded as 6.1. For the same molecule, the “selectivity for μ than for δ in receptor binding assay” value with μ and δ opiate receptors is “about 400 fold”.
For the molecule “β -Endorphin: consists of 31 amino acid residues and is a fragment of β -lipotropin (YGGFMTSEKSQTPLVTLFKNAIIKNAYKKGE; Beta-endorphin; UniProt P01189 237-267, looked up)”, the analgesic activity result in assay [3] is “marked and long-lived analgesic activity”.
